Columns and labels:
[1] = tested on: CHO DG44 cell line; experiment: Effective concentration range of THF: suspension growth of CHO DG44 in HY-CDM media; type: cell-based, Chinese hamster
Text: (§1) 1. Cell line and media: CHO DG44 cell line was used as a DHFR-deficient cell line. The cell line was passaged 80 times or more and suspension adapted in HY-CDM (in-house) media as chemically defined media. The suspension-adapted cell line was used to evaluate the influence of tetrahydrofolate (THF) and dihydrofolate (DHF) and the growth characteristics in commercial chemically defined media. The HY-CDM media were composed of chemically defined components only. Each HY-CDM medium further included a growth factor. HY-CDM media used in Examples 1, 3, and 4 were free of an animal derived lipid mixture, and HY-CDM media used in Example 2 were supplemented with cod liver oil.
2. Cell suspension culture: The cell line was inoculated at a density of 4×10^5 cells/ml and cultured in an Erlenmeyer flask with a 30 ml/125 ml working volume on an orbital shaker at 120 rpm under humidified conditions at 37° C. and 5% CO2. Before inoculation, the cells were centrifuged at 1,000 rpm (×162 g) for 5 min, the supernatant was discarded, and the remaining cells were dispersed into single cells in the heated medium. The cells were passaged three times to minimize the influence of the remaining medium under the experimental conditions. The subcultured cells were evaluated.
(§2) 3. Density of live cells: The density of live cells was analyzed using a hemocytometer (Neubauer improved bright-line, Marienfeld, Germany), an inverted microscope (CK30, Olympus, Japan), and trypan blue dye exclusion.
In this example, the effective concentration range of THF inducing the suspension growth of the CHO DG44 cell line in the HY-CDM media was evaluated with varying amounts of THF.
To this end, the CHO DG44 cell line was passaged three time at a THF concentration of 0-480 mg/L, and their maximum cell densities and doubling times were measured.

[2] = tested on: CHO DG44 cell line; experiment: Growth of CHO DG44 cell line in commercial chemically defined media with and without THF; type: cell-based, Chinese hamster; settings: six commercial chemically defined media
Text: as §1
2. Cell suspension culture: The cell line was inoculated at a density of 4×10^5 cells/ml and cultured in an Erlenmeyer flask with a 30 ml/125 ml working volume on an orbital shaker at 120 rpm under humidified conditions at 37° C. and 5% CO2. […] The subcultured cells were evaluated.
as §2
In this example, the versatility of the effect of THF addition to induce cell growth was evaluated. […]

Substance: tetrahydrofolate [THF]
- Doubling time, Passage 3 ([1]; THF 0.2000 mg/L, HY-CDM): 18.3 h
- Maximum cell density, Average ([1]; THF 0.2000 mg/L, HY-CDM): 25.9 ×10^5 cells/ml
- Maximum cell density, Passage 1 ([1]; THF 0.2000 mg/L, HY-CDM): 26.6 ×10^5 cells/ml
- Maximum cell density, Passage 2 ([1]; THF 0.2000 mg/L, HY-CDM): 25.0 ×10^5 cells/ml
- Maximum cell density, Passage 3 ([1]; THF 0.2000 mg/L, HY-CDM): 26.1 ×10^5 cells/ml
- Cell density increase ([1]; THF 0.4 mg/L, HY-CDM): about 56%
- Doubling time, Average ([1]; THF 0.4000 mg/L, HY-CDM): 22.1 h
- Doubling time, Passage 1 ([1]; THF 0.4000 mg/L, HY-CDM): 22.7 h
- Doubling time, Passage 2 ([1]; THF 0.4000 mg/L, HY-CDM): 24.5 h
- Doubling time, Passage 3 ([1]; THF 0.4000 mg/L, HY-CDM): 19.2 h
- Maximum cell density, Average ([1]; THF 0.4000 mg/L, HY-CDM): 29.7 ×10^5 cells/ml
- Maximum cell density, Passage 1 ([1]; THF 0.4000 mg/L, HY-CDM): 30.2 ×10^5 cells/ml
- Maximum cell density, Passage 2 ([1]; THF 0.4000 mg/L, HY-CDM): 28.1 ×10^5 cells/ml
- Maximum cell density, Passage 3 ([1]; THF 0.4000 mg/L, HY-CDM): 30.9 ×10^5 cells/ml
- Cell density increase ([1]; THF 0.8 mg/L, HY-CDM): ~73%
- Doubling time, Average ([1]; THF 0.8000 mg/L, HY-CDM): 20.7 h
- Doubling time, Passage 1 ([1]; THF 0.8000 mg/L, HY-CDM): 22.1 h
- Doubling time, Passage 2 ([1]; THF 0.8000 mg/L, HY-CDM): 22.2 h
- Doubling time, Passage 3 ([1]; THF 0.8000 mg/L, HY-CDM): 17.6 h
- Maximum cell density, Average ([1]; THF 0.8000 mg/L, HY-CDM): 35.3 ×10^5 cells/ml
- Maximum cell density, Passage 1 ([1]; THF 0.8000 mg/L, HY-CDM): 34.2 ×10^5 cells/ml
- Maximum cell density, Passage 2 ([1]; THF 0.8000 mg/L, HY-CDM): 35.4 ×10^5 cells/ml
- Maximum cell density, Passage 3 ([1]; THF 0.8000 mg/L, HY-CDM): 36.4 ×10^5 cells/ml
- Doubling time, Average ([1]; THF 1.6000 mg/L, HY-CDM): 21.3 h
- Doubling time, Passage 1 ([1]; THF 1.6000 mg/L, HY-CDM): 21.4 h
- Doubling time, Passage 2 ([1]; THF 1.6000 mg/L, HY-CDM): 22.0 h
- Doubling time, Passage 3 ([1]; THF 1.6000 mg/L, HY-CDM): 20.5 h
- Maximum cell density, Average ([1]; THF 1.6000 mg/L, HY-CDM): 46.9 ×10^5 cells/ml
- Maximum cell density, Passage 1 ([1]; THF 1.6000 mg/L, HY-CDM): 46.0 ×10^5 cells/ml
- Maximum cell density, Passage 2 ([1]; THF 1.6000 mg/L, HY-CDM): 47.0 ×10^5 cells/ml
- Maximum cell density, Passage 3 ([1]; THF 1.6000 mg/L, HY-CDM): 47.8 ×10^5 cells/ml
- Doubling time, Average ([1]; THF 16.0000 mg/L, HY-CDM): 21.2 h
- Doubling time, Passage 1 ([1]; THF 16.0000 mg/L, HY-CDM): 22.5 h
- Doubling time, Passage 2 ([1]; THF 16.0000 mg/L, HY-CDM): 21.2 h
- Doubling time, Passage 3 ([1]; THF 16.0000 mg/L, HY-CDM): 19.8 h
- Maximum cell density, Average ([1]; THF 16.0000 mg/L, HY-CDM): 50.1 ×10^5 cells/ml
- Maximum cell density, Passage 1 ([1]; THF 16.0000 mg/L, HY-CDM): 52.0 ×10^5 cells/ml
- Maximum cell density, Passage 2 ([1]; THF 16.0000 mg/L, HY-CDM): 48.8 ×10^5 cells/ml
- Maximum cell density, Passage 3 ([1]; THF 16.0000 mg/L, HY-CDM): 49.6 ×10^5 cells/ml
- Doubling time ([1]; THF 0.025-16 mg/L, HY-CDM): 21.3 ± 0.7 h
- More rapid cell growth compared to control ([1]; THF 0.025-16 mg/L, HY-CDM): ≥ 14%
- Effect on cell growth ([1]; THF 0.1-160 mg/L, chemically defined media): effective in improving the cell growth
- Cell growth increase ([1]; THF 0.1-0.2 ma/L, HY-CDM): ≥ 35%
- Cell density increase ([1]; THF 160 mg/L, HY-CDM): ~90%
- Doubling time, Average ([1]; THF 160.0000 mg/L, HY-CDM): 23.0 h
- Doubling time, Passage 1 ([1]; THF 160.0000 mg/L, HY-CDM): 25.8 h
- Doubling time, Passage 2 ([1]; THF 160.0000 mg/L, HY-CDM): 21.6 h
- Doubling time, Passage 3 ([1]; THF 160.0000 mg/L, HY-CDM): 21.6 h
- Maximum cell density, Average ([1]; THF 160.0000 mg/L, HY-CDM): 35.7 ×10^5 cells/ml
- Maximum cell density, Passage 1 ([1]; THF 160.0000 mg/L, HY-CDM): 33.0 ×10^5 cells/ml
- Maximum cell density, Passage 2 ([1]; THF 160.0000 mg/L, HY-CDM): 36.4 ×10^5 cells/ml
- Maximum cell density, Passage 3 ([1]; THF 160.0000 mg/L, HY-CDM): 37.6 ×10^5 cells/ml
- Effect on cell growth ([1]; THF 480 mg/L, HY-CDM): inhibited the cell growth
- Maximum cell density, Average ([1]; THF 480.0000 mg/L, HY-CDM): 06.3 ×10^5 cells/ml
- Maximum cell density, Passage 1 ([1]; THF 480.0000 mg/L, HY-CDM): 09.4 ×10^5 cells/ml
- Maximum cell density, Passage 2 ([1]; THF 480.0000 mg/L, HY-CDM): 04.6 ×10^5 cells/ml
- Maximum cell density, Passage 3 ([1]; THF 480.0000 mg/L, HY-CDM): 04.8 ×10^5 cells/ml
- Cell density increase (maximum) ([1]; THF 1.6-16 mg/L, HY-CDM): ≥ 155%
- Effect on cell density and growth rate [2]: increased the cell density and growth rate

Reference: patent US11186817B2, “Chemically defined cell culture media additive” (IUCF-HYU (INDUSTRY-UNIVERSITY COOPERATION FOUNDATION …, priority 2014, dated 2021)
